Reference: patent US8933070B2, “Methods of targeting PTEN mutant diseases and compositions therefor” (University Health Network, priority 2010, dated 2015)
Read-outs that look alike come from different tables or passages of the source.

Tests used:
[1] = tested on: HCC1954 basal breast cancer cell line; assay: Cell growth inhibition, Sulforhodamine B (SRB) assay; type: cell-based; details: Homo sapiens
Protocol: Aliquots (20 μl) from each concentration were overlaid to 80 μl of the pre-seeded cells in the 96-plates to make final concentrations of 10 nM to 50 μM. The cells were cultured for 5 days before the Sulforhodamine B (SRB) assay was performed to determine the compound's cell growth inhibition activity.
Sulforhodamine B (Sigma, Canada) is a water-soluble dye that binds to the basic amino acids of cellular proteins. Thus, colorimetric measurement of the bound dye provides an estimate of the total protein mass that is related to the cell number. The cells are fixed in situ by gently aspirating off the culture media and adding 50 μl ice cold 10% Trichloroacetic Acid (TCA) per well and incubated at 4° C. for 30-60 min. The plates are washed with water five times and allowed to air dry for 5 min. Addition of 50 μl 0.4% (w/v) SRB solution in 1% (v/v) acetic acid to each well and incubatation for […] at RT completes the staining reaction. Following staining, plates are washed four times with 1% acetic acid to remove unbound dye and then allowed to air dry for 5 min. […] Absorbance is read at 570 nm.
The percentage (%) of relative growth inhibition was calculated by comparing to DMSO-treated only cells (100%). GI50's were determined for compounds with cytotoxic activity. The GI50 was calculated using GraphPad PRISM software (GraphPad Software, Inc., USA).
The SRB assay described above was used to assay test compounds against the extended panel (Table 6).

PKCbeta 1 = PKCbeta 1 (Homo sapiens, UniProt P05771); assay: Kinase selectivity assay (CEREP, HTRF); type: biochemical; details: read-out: % Inhibition at 10 μM Concentration
Protocol: (§1) The inhibitory activity of selected compounds was evaluated against a panel of 45 different kinase enzymes by CEREP, France. The assays were performed using standard HTRF assay methods as documented by CEREP against the human orthologues of Abl kinase, Akt1/PKBa, AMPKa, BMX kinase (Etk), Brk, CaMK2a, CaMK4, CDC2/CDK1 (cycB), CHK1, CHK2, c-Met kinase, CSK, EphB4 kinase, ERK1, ERK2 (P42mapk), FGFR2 kinase, FGFR4 kinase, FLT-1 kinase (VEGFR1), FLT-3 kinase, Fyn kinase, IGF1R kinase, IRK (InsR), JNK 2, KDR kinase (VEGFR2), Lck kinase, Lyn kinase, MAPKAPK2, MEK1/MAP2K1, p38a kinase, p38d kinase, p38g kinase, PDGFRb kinase, PDK1, PKA, PKCa, PKCb1, PKCb2, PKCg, Ret kinase, ROCK2, RSK2, Src kinase, Syk, and TRKA. The % Inhibition was determined by the formula; % Inhibition=100×(1−(experimental value−background value)/(high activity control−background value)).

IGF1R = IGF1R (Homo sapiens, UniProt P08069); assay: Kinase selectivity assay (CEREP, HTRF); type: biochemical; details: read-out: % Inhibition at 10 μM Concentration
Protocol: as §1

ROCK2 = ROCK2 (Homo sapiens, UniProt O75116); assay: Kinase selectivity assay (CEREP, HTRF); type: biochemical; details: read-out: % Inhibition at 10 μM Concentration
Protocol: as §1

FLT-1 (VEGFR1) = FLT-1 (VEGFR1) (Homo sapiens, UniProt P17948); assay: Kinase selectivity assay (CEREP, HTRF); type: biochemical; details: read-out: % Inhibition at 10 μM Concentration
Protocol: as §1

PKCgamma = PKCgamma (Homo sapiens, UniProt P05129); assay: Kinase selectivity assay (CEREP, HTRF); type: biochemical; details: read-out: % Inhibition at 10 μM Concentration
Protocol: as §1

Lck = Lck (Homo sapiens, UniProt P06239); assay: Kinase selectivity assay (CEREP, HTRF); type: biochemical; details: read-out: % Inhibition at 10 μM Concentration
Protocol: as §1

Ret = Ret (Homo sapiens, UniProt P07949); assay: Kinase selectivity assay (CEREP, HTRF); type: biochemical; details: read-out: % Inhibition at 10 μM Concentration
Protocol: as §1

Abl kinase = Abl kinase (Homo sapiens, UniProt P00519); assay: Kinase selectivity assay (CEREP, HTRF); type: biochemical; details: read-out: % Inhibition at 10 μM Concentration
Protocol: as §1

ERK (P42mapk) = ERK (P42mapk) (Homo sapiens, UniProt P28482); assay: Kinase selectivity assay (CEREP, HTRF); type: biochemical; details: read-out: % Inhibition at 10 μM Concentration
Protocol: as §1

p38delta = p38delta (Homo sapiens, UniProt O15264); assay: Kinase selectivity assay (CEREP, HTRF); type: biochemical; details: read-out: % Inhibition at 10 μM Concentration
Protocol: as §1

Fyn = Fyn (Homo sapiens, UniProt P06241); assay: Kinase selectivity assay (CEREP, HTRF); type: biochemical; details: read-out: % Inhibition at 10 μM Concentration
Protocol: as §1

p38gamma = p38gamma (Homo sapiens, UniProt P53778); assay: Kinase selectivity assay (CEREP, HTRF); type: biochemical; details: read-out: % Inhibition at 10 μM Concentration
Protocol: as §1

CaMK2alpha = CaMK2alpha (Homo sapiens, UniProt Q9UQM7); assay: Kinase selectivity assay (CEREP, HTRF); type: biochemical; details: read-out: % Inhibition at 10 μM Concentration
Protocol: as §1

PKCalpha = PKCalpha (Homo sapiens, UniProt P17252); assay: Kinase selectivity assay (CEREP, HTRF); type: biochemical; details: read-out: % Inhibition at 10 μM Concentration
Protocol: as §1

RSK2 = RSK2 (Homo sapiens, UniProt P51812); assay: Kinase selectivity assay (CEREP, HTRF); type: biochemical; details: read-out: % Inhibition at 10 μM Concentration
Protocol: as §1

PKCbeta 2 = PKCbeta 2 (Homo sapiens, UniProt P05771); assay: Kinase selectivity assay (CEREP, HTRF); type: biochemical; details: read-out: % Inhibition at 10 μM Concentration
Protocol: as §1

PDK1 = PDK1 (Homo sapiens, UniProt O15530); assay: Kinase selectivity assay (CEREP, HTRF); type: biochemical; details: read-out: % Inhibition at 10 μM Concentration
Protocol: as §1

PDGFRbeta = PDGFRbeta (Homo sapiens, UniProt P09619); assay: Kinase selectivity assay (CEREP, HTRF); type: biochemical; details: read-out: % Inhibition at 10 μM Concentration
Protocol: as §1

p38alpha = p38alpha (Homo sapiens, UniProt Q16539); assay: Kinase selectivity assay (CEREP, HTRF); type: biochemical; details: read-out: % Inhibition at 10 μM Concentration
Protocol: as §1

FGFR4 = FGFR4 (Homo sapiens, UniProt P22455); assay: Kinase selectivity assay (CEREP, HTRF); type: biochemical; details: read-out: % Inhibition at 10 μM Concentration
Protocol: as §1

IRK (InsR) = IRK (InsR) (Homo sapiens, UniProt P06213); assay: Kinase selectivity assay (CEREP, HTRF); type: biochemical; details: read-out: % Inhibition at 10 μM Concentration
Protocol: as §1

CaMK4 = CaMK4 (Homo sapiens, UniProt Q16566); assay: Kinase selectivity assay (CEREP, HTRF); type: biochemical; details: read-out: % Inhibition at 10 μM Concentration
Protocol: as §1

c-Met = c-Met (Homo sapiens, UniProt P08581); assay: Kinase selectivity assay (CEREP, HTRF); type: biochemical; details: read-out: % Inhibition at 10 μM Concentration
Protocol: as §1

CHK1 = CHK1 (Homo sapiens, UniProt O14757); assay: Kinase selectivity assay (CEREP, HTRF); type: biochemical; details: read-out: % Inhibition at 10 μM Concentration
Protocol: as §1

CSK = CSK (Homo sapiens, UniProt P41240); assay: Kinase selectivity assay (CEREP, HTRF); type: biochemical; details: read-out: % Inhibition at 10 μM Concentration
Protocol: as §1

CDC2/CDK1 = CDC2/CDK1 (Homo sapiens, UniProt P06493); assay: Kinase selectivity assay (CEREP, HTRF); type: biochemical; details: read-out: % Inhibition at 10 μM Concentration
Protocol: as §1

Akt1/PKBalpha = Akt1/PKBalpha (Homo sapiens, UniProt P31749); assay: Kinase selectivity assay (CEREP, HTRF); type: biochemical; details: read-out: % Inhibition at 10 μM Concentration
Protocol: as §1

[2] = HCC1954, 120 h, read-out: Cell Line GI50 Range HCC1954

Chain of IGF1R (P08069 31-1367): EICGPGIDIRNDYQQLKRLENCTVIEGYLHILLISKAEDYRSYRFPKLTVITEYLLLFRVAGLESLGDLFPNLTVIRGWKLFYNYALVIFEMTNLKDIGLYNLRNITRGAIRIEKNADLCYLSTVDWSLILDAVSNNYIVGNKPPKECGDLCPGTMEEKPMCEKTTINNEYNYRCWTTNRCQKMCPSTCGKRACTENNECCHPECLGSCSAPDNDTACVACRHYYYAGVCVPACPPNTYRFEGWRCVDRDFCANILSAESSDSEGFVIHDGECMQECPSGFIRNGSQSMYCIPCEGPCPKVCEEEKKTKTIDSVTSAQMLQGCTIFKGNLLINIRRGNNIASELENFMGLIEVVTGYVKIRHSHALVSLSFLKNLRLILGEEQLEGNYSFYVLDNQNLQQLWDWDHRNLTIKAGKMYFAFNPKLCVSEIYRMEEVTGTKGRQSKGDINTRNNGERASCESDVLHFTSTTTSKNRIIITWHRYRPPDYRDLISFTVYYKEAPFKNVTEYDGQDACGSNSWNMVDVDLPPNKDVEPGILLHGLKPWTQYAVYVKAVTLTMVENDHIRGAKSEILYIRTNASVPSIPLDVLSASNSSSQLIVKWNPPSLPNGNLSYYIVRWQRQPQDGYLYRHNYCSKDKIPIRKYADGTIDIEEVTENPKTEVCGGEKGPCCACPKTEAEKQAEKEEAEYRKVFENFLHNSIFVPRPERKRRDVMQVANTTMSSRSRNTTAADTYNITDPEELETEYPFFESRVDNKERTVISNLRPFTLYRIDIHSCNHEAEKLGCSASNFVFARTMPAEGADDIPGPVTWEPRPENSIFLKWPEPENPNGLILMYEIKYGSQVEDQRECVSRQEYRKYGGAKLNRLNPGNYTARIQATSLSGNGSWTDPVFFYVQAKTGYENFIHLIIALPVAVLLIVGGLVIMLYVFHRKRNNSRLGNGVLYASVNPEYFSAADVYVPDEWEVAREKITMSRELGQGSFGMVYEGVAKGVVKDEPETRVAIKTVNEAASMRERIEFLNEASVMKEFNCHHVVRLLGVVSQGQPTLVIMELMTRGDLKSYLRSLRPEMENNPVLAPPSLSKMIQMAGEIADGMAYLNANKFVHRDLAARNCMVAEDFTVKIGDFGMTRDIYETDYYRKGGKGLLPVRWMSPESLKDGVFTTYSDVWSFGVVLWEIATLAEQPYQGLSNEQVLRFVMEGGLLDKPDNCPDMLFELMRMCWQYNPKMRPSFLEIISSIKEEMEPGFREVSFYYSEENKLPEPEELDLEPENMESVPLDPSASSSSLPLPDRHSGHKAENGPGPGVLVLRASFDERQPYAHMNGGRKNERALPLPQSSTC
Chain of PKCbeta 1 (P05771 whole entry): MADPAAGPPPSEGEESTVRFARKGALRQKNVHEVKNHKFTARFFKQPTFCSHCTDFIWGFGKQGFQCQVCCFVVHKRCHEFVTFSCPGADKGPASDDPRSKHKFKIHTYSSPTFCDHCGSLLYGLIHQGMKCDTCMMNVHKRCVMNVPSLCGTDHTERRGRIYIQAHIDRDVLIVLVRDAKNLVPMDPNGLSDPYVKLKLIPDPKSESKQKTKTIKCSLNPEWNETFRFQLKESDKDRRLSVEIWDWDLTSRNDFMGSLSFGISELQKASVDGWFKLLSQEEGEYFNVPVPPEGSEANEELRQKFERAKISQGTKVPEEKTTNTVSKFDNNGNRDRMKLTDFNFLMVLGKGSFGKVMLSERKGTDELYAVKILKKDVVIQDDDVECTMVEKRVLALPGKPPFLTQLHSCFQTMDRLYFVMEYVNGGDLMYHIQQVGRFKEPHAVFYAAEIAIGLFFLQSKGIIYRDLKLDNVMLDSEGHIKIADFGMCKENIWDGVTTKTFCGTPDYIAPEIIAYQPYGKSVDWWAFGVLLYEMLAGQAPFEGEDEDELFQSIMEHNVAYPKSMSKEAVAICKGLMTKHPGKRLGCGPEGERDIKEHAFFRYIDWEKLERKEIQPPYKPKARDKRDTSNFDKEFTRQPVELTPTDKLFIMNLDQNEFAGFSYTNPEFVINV
Chain of ERK (P42mapk) (P28482 whole entry): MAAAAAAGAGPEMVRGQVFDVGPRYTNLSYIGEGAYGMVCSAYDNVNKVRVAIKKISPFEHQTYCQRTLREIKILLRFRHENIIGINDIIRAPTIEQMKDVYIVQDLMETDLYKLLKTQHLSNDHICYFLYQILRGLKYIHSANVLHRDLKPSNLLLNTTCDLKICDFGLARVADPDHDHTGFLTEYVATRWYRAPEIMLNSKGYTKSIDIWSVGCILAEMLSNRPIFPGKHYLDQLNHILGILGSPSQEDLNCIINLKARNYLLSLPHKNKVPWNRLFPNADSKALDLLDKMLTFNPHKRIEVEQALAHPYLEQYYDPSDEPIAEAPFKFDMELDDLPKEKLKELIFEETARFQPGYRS
Chain of ROCK2 (O75116 whole entry): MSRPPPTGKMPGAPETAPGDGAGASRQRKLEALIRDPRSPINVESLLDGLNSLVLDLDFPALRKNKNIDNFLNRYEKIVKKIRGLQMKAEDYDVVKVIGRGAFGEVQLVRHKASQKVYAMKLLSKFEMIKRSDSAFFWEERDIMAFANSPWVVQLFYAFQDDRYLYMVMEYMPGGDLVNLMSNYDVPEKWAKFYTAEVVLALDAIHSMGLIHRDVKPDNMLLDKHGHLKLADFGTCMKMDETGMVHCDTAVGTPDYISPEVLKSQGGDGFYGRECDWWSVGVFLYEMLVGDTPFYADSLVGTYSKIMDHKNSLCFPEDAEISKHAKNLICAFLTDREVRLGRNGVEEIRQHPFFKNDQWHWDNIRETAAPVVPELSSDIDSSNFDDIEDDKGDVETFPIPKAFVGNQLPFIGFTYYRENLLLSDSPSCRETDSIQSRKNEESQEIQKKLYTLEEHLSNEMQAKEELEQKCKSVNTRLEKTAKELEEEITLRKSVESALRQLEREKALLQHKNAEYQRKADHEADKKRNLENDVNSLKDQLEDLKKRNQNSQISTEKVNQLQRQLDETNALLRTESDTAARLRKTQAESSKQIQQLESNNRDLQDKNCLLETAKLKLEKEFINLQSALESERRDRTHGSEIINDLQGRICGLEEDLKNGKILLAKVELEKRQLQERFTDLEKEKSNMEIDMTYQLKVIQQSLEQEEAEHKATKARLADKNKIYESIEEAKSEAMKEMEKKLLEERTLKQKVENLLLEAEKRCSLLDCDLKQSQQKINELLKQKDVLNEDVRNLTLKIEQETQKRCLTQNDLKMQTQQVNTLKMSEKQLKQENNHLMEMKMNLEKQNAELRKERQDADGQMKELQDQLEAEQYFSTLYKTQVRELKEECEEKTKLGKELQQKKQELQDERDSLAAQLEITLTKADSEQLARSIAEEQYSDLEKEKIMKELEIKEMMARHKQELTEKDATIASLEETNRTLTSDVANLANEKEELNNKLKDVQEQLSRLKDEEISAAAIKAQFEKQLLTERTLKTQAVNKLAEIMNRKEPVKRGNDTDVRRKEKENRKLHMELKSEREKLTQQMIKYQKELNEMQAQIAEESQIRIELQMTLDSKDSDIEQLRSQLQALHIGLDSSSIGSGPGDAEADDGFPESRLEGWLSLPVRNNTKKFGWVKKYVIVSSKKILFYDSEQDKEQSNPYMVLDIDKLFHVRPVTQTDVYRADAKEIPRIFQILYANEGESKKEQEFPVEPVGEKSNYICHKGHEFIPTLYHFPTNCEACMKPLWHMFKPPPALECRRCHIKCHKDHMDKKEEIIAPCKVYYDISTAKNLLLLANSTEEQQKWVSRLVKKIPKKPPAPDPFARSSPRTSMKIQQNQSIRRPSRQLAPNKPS
Chain of CSK (P41240 whole entry): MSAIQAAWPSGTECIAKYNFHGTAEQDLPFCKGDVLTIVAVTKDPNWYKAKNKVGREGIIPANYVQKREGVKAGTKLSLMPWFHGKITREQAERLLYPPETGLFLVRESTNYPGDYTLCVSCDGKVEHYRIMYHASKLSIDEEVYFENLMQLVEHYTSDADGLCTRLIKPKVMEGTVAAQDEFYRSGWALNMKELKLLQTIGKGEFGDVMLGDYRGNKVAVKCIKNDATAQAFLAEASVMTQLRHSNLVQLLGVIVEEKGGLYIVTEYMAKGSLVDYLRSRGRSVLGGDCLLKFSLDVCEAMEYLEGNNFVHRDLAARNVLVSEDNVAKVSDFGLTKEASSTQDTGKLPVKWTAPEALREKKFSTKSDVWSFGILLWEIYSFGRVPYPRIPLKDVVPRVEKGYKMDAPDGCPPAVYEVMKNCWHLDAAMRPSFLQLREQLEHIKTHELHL
Chain of FGFR4 (P22455 22-802): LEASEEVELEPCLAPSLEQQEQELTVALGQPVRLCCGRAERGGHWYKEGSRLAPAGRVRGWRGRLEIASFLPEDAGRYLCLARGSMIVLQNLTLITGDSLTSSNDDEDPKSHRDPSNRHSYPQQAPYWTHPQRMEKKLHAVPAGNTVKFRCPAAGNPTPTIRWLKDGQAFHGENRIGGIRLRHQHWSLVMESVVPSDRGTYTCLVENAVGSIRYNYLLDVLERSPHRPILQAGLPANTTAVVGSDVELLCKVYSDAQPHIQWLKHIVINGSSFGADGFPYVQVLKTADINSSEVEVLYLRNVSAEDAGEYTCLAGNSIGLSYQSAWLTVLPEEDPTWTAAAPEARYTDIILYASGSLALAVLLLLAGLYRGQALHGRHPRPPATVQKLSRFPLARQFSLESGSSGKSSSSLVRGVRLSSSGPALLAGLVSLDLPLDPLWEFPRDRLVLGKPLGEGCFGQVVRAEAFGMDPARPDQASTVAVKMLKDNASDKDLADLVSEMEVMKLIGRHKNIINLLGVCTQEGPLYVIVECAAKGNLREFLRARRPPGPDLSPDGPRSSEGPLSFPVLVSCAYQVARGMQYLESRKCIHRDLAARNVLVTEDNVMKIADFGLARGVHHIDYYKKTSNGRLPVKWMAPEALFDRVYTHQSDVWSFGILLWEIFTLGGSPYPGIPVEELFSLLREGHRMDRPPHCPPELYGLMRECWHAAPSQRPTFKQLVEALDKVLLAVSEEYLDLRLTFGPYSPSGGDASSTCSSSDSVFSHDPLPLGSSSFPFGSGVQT

SMILES: COc1ccc2c(c1)[C@@]1(C[C@@H]1c1ccc3c(-c4ccc(N5CCN(C)CC5)nc4)n[nH]c3c1)C(=O)N2 (racemic) [Compound 2]
- GI50 [1, 2]: < 5 µM
- inhibition at 10 µM (PKCbeta 1): -2%
- inhibition at 10 µM (IGF1R): -3%

SMILES: CN(C)Cc1ccc(/C=C/c2n[nH]c3cc([C@H]4C[C@@]45C(=O)Nc4ccccc45)ccc23)cc1 (racemic) [Compound 35]
- GI50 [1, 2]: < 5 µM
- inhibition at 10 µM (ROCK2): 32%
- inhibition at 10 µM (FLT-1 (VEGFR1)): 30%
- inhibition at 10 µM (PKCgamma): 10%
- inhibition at 10 µM (Lck): 100%
- inhibition at 10 µM (Ret): 86%
- inhibition at 10 µM (PKCbeta 1; PKCbeta 1, 10 μM): -2%
- inhibition at 10 µM (Abl kinase): 100%
- inhibition at 10 µM (ERK (P42mapk)): 2%
- inhibition at 10 µM (p38delta): 5%
- inhibition at 10 µM (Fyn): 55%
- inhibition at 10 µM (p38gamma): -5%
- inhibition at 10 µM (CaMK2alpha): 9%
- inhibition at 10 µM (PKCalpha): 6%
- inhibition at 10 µM (RSK2): 22%
- inhibition at 10 µM (PKCbeta 2): 26%
- inhibition at 10 µM (PDK1): 2%
- inhibition at 10 µM (PDGFRbeta): 59%
- inhibition at 10 µM (p38alpha): -22%
- inhibition at 10 µM (IGF1R; IGF1R, 10 μM): 0%
- inhibition at 10 µM (FGFR4): -12%
- inhibition at 10 µM (IRK (InsR)): 5%
- inhibition at 10 µM (CaMK4): -4%
- inhibition at 10 µM (c-Met): 61%
- inhibition at 10 µM (CHK1): 43%
- inhibition at 10 µM (CSK): 75%
- inhibition at 10 µM (CDC2/CDK1): 60%
- inhibition at 10 µM (Akt1/PKBalpha): -4%

SMILES: COc1ccc2c(c1)/C(=C\c1ccc3c(/C=C/c4ccc(N5CCN(C)CC5)nc4)n[nH]c3c1)C(=O)N2 [Compound 3]
- GI50 ([1]; HCC1954, read-out: GI50 Range HCC1954): < 5 µM
- inhibition at 10 µM (ROCK2): -20%
- inhibition at 10 µM (FLT-1 (VEGFR1)): 30%
- inhibition at 10 µM (PKCgamma): 3%
- inhibition at 10 µM (Lck): 13%
- inhibition at 10 µM (Ret): 33%
- inhibition at 10 µM (PKCbeta 1; PKCbeta 1, 10 μM): 1%
- inhibition at 10 µM (Abl kinase): 23%
- inhibition at 10 µM (ERK (P42mapk)): 15%
- inhibition at 10 µM (p38delta): -2%
- inhibition at 10 µM (Fyn): 4%
- inhibition at 10 µM (p38gamma): 12%
- inhibition at 10 µM (CaMK2alpha): 2%
- inhibition at 10 µM (PKCalpha): 7%
- inhibition at 10 µM (RSK2): -4%
- inhibition at 10 µM (PKCbeta 2): 4%
- inhibition at 10 µM (PDK1): 5%
- inhibition at 10 µM (PDGFRbeta): 14%
- inhibition at 10 µM (p38alpha): 22%
- inhibition at 10 µM (IGF1R; IGF1R, 10 μM): 5%
- inhibition at 10 µM (FGFR4): -30%
- inhibition at 10 µM (IRK (InsR)): 2%
- inhibition at 10 µM (CaMK4): 6%
- inhibition at 10 µM (c-Met): 2%
- inhibition at 10 µM (CHK1): 0%
- inhibition at 10 µM (CSK): 6%
- inhibition at 10 µM (CDC2/CDK1): 11%
- inhibition at 10 µM (Akt1/PKBalpha): -5%
